From ChEMBL document CHEMBL4321806 (J Med Chem, 2019)

Tested on: not listed separately
Assay: Cytotoxicity against mouse L929 cells assessed as reduction in cell viability

SMILES | IC50 [µM]
COC(=O)c1cccc(COc2c(-c3ccc(OCCOCCOCCn4cc(COCCOc5ccc6c(=O)cc(-c7ccccc7)oc6c5)nn4)cc3)oc3ccccc3c2=O)c1 | > 100
O=c1cc(-c2ccccc2)oc2cc(OCCCCc3cn(CCOCCOc4ccc(-c5cc(=O)c6cc(F)ccc6o5)cc4)nn3)ccc12 | > 100
COC(=O)c1cccc(COc2c(-c3ccc(OCCOCCOCCn4cc(CCCCOc5ccc6c(=O)cc(-c7ccccc7)oc6c5)nn4)cc3)oc3ccccc3c2=O)c1 | > 100
Cc1ccc2oc(-c3ccc(OCCOCCOCCn4cc(COCCOc5ccc6c(=O)cc(-c7ccccc7)oc6c5)nn4)cc3)cc(=O)c2c1 | > 100
Cc1ccc2oc(-c3ccc(OCCCCc4cn(CCN(CCOc5ccc6c(=O)cc(-c7ccccc7)oc6c5)Cc5ccccc5)nn4)cc3)cc(=O)c2c1 | > 100
COC(=O)c1cccc(COc2c(-c3ccc(OCCOCCOCCn4cc(-c5cccc(-c6cn(CCOCCOCCOc7ccc(-c8oc9ccccc9c(=O)c8OCc8cccc(C(=O)OC)c8)cc7)nn6)c5)nn4)cc3)oc3ccccc3c2=O)c1 | > 100
O=c1cc(-c2ccccc2)oc2cc(OCCOCCn3cc(CN(Cc4ccccc4)Cc4cn(CCOCCOc5ccc6c(=O)cc(-c7ccccc7)oc6c5)nn4)nn3)ccc12 | > 100
COC(=O)c1cccc(COc2c(-c3ccc(OCCOCCn4cc(CCCc5cn(CCOCCOc6ccc(-c7oc8ccccc8c(=O)c7OCc7cccc(C(=O)OC)c7)cc6)nn5)nn4)cc3)oc3ccccc3c2=O)c1 | > 100
COC(=O)c1cccc(COc2c(-c3ccc(OCCOCCOCCn4cc(CCCOc5ccc6c(=O)cc(-c7ccccc7)oc6c5)nn4)cc3)oc3ccccc3c2=O)c1 | > 100
COC(=O)c1cccc(COc2c(-c3ccc(OCCOCCn4cc(CCCOc5ccc(-c6cc(=O)c7ccc(F)cc7o6)cc5)nn4)cc3)oc3ccccc3c2=O)c1 | > 100
Cc1ccc2oc(-c3ccc(OCCCCc4cn(CCOCCOc5ccc(-c6oc7ccccc7c(=O)c6OCc6ccccc6)cc5)nn4)cc3)cc(=O)c2c1 | > 100
O=c1cc(-c2ccccc2)oc2cc(OCCOCCn3cc(COCCOc4ccc5c(=O)cc(-c6ccccc6)oc5c4)nn3)ccc12 | > 100
Cc1ccc2oc(-c3ccc(OCCCCc4cn(CCOCCOCCOc5ccc(-c6oc7ccccc7c(=O)c6OCc6ccccc6)cc5)nn4)cc3)cc(=O)c2c1 | > 100
COC(=O)c1cccc(COc2c(-c3ccc(OCCOCCn4cc(CCCCOc5ccc(-c6cc(=O)c7cc(C)ccc7o6)cc5)nn4)cc3)oc3ccccc3c2=O)c1 | > 100
COC(=O)c1cccc(COc2c(-c3ccc(OCCOCCn4cc(CN(Cc5ccncc5)Cc5cn(CCOCCOc6ccc(-c7oc8ccccc8c(=O)c7OCc7cccc(C(=O)OC)c7)cc6)nn5)nn4)cc3)oc3ccccc3c2=O)c1 | > 50
O=c1cc(-c2ccccc2)oc2cc(OCCOCCOCCn3cc(CN(CCOc4ccc5c(=O)cc(-c6ccccc6)oc5c4)Cc4ccccc4)nn3)ccc12 | > 100
O=c1cc(-c2ccccc2)oc2cc(OCCCCc3cn(CCOCCOc4ccc(-c5oc6ccccc6c(=O)c5OCc5ccccc5)cc4)nn3)ccc12 | > 100
COC(=O)c1cccc(COc2c(-c3ccc(OCCOCCn4cc(CN5CCCN(Cc6cn(CCOCCOc7ccc(-c8oc9ccccc9c(=O)c8OCc8cccc(C(=O)OC)c8)cc7)nn6)CC5)nn4)cc3)oc3ccccc3c2=O)c1 | > 100
COC(=O)c1cccc(COc2c(-c3ccc(OCCOCCn4cc(COCCOc5ccc6c(=O)cc(-c7ccccc7)oc6c5)nn4)cc3)oc3ccccc3c2=O)c1 | > 100
O=c1cc(-c2ccccc2)oc2cc(OCCOCc3cn(CCOCCOc4ccc(-c5cc(=O)c6cc(F)ccc6o5)cc4)nn3)ccc12 | > 100

SMILES | IC50 [µM]
COC(=O)c1cccc(COc2c(-c3ccc(OCCOCCOCCn4cc(CCCCOc5ccc(-c6cc(=O)c7cc(C)ccc7o6)cc5)nn4)cc3)oc3ccccc3c2=O)c1 | > 100
O=c1cc(-c2ccc(OCCOCCOCCn3cc(CCCCOc4ccc5c(=O)cc(-c6ccccc6)oc5c4)nn3)cc2)oc2ccccc12 | > 50
Cc1ccc2oc(-c3ccc(OCCCCc4cn(CCOCCOCCOc5ccc(-c6cc(=O)c7ccccc7o6)cc5)nn4)cc3)cc(=O)c2c1 | > 50
COC(=O)c1cccc(COc2c(-c3ccc(OCCOCCOCCn4cc(CCCOc5ccc(-c6cc(=O)c7ccc(F)cc7o6)cc5)nn4)cc3)oc3ccccc3c2=O)c1 | > 100
Cc1ccc2oc(-c3ccc(OCCCCc4cn(CCOCCOCCOc5ccc6c(=O)cc(-c7ccccc7)oc6c5)nn4)cc3)cc(=O)c2c1 | > 100
O=c1cc(-c2ccccc2)oc2cc(OCCCCc3cn(CCOCCOCCOc4ccc(-c5cc(=O)c6cc(F)ccc6o5)cc4)nn3)ccc12 | > 100
O=c1cc(-c2ccccc2)oc2cc(OCCOCCOCCn3cc(COCCOc4ccc5c(=O)cc(-c6ccccc6)oc5c4)nn3)ccc12 | 12.1
O=c1cc(-c2ccccc2)oc2cc(OCCn3cc(CN(Cc4ccccc4)Cc4cn(CCOc5ccc6c(=O)cc(-c7ccccc7)oc6c5)nn4)nn3)ccc12 | > 100
O=c1cc(-c2ccc(OCCOCCn3cc(CN(Cc4ccccc4)Cc4cn(CCOCCOc5ccc(-c6cc(=O)c7ccccc7o6)cc5)nn4)nn3)cc2)oc2ccccc12 | > 100
Cc1ccc2oc(-c3ccc(OCCOCCOCCn4cc(CCCOc5ccc6c(=O)cc(-c7ccccc7)oc6c5)nn4)cc3)cc(=O)c2c1 | > 50
Cc1ccc2oc(-c3ccc(OCCOCCOCCn4cc(CCCCOc5ccc6c(=O)cc(-c7ccccc7)oc6c5)nn4)cc3)cc(=O)c2c1 | > 50
O=c1cc(-c2ccccc2)oc2cc(OCCCc3cn(CCOCCOCCOc4ccc5c(=O)cc(-c6ccccc6)oc5c4)nn3)ccc12 | > 50
O=c1cc(-c2ccccc2)oc2cc(OCCCCc3cn(CCOCCOCCOc4ccc(-c5oc6ccccc6c(=O)c5OCc5ccccc5)cc4)nn3)ccc12 | > 100
O=c1cc(-c2ccccc2)oc2cc(OCCN(Cc3ccccc3)Cc3cn(CCOCCOCCOc4ccc(-c5oc6ccccc6c(=O)c5OCc5ccccc5)cc4)nn3)ccc12 | > 100
O=c1cc(-c2ccccc2)oc2cc(OCCOCc3cn(CCOCCOCCOc4ccc(-c5cc(=O)c6cc(F)ccc6o5)cc4)nn3)ccc12 | > 50
Cc1ccc2oc(-c3ccc(OCCOCCOCCOCCOCCOc4ccc(-c5cc(=O)c6cc(C)ccc6o5)cc4)cc3)cc(=O)c2c1 | > 100
O=c1cc(-c2ccccc2)oc2cc(OCCOCCOCCn3cc(CN(Cc4ccccc4)Cc4cn(CCOCCOCCOc5ccc6c(=O)cc(-c7ccccc7)oc6c5)nn4)nn3)ccc12 | > 100
O=c1cc(-c2ccccc2)oc2cc(OCCCCc3cn(CCOCCOCCOc4ccc5c(=O)cc(-c6ccccc6)oc5c4)nn3)ccc12 | > 100
O=c1cc(-c2ccc(OCCCc3cn(CCOCCOCCOc4ccc5c(=O)cc(-c6ccccc6)oc5c4)nn3)cc2)oc2cc(F)ccc12 | > 100
COC(=O)c1cccc(COc2c(-c3ccc(OCCOCCn4cc(CN(C)CCN(C)Cc5cn(CCOCCOc6ccc(-c7oc8ccccc8c(=O)c7OCc7cccc(C(=O)OC)c7)cc6)nn5)nn4)cc3)oc3ccccc3c2=O)c1 | > 100

SMILES | IC50 [µM]
COC(=O)c1cccc(COc2c(-c3ccc(OCCOCCn4cc(CCCCOc5ccc6c(=O)cc(-c7ccccc7)oc6c5)nn4)cc3)oc3ccccc3c2=O)c1 | > 100
O=c1cc(-c2ccc(OCCOCCOCCn3cc(CCCOc4ccc5c(=O)cc(-c6ccccc6)oc5c4)nn3)cc2)oc2ccccc12 | 12
COC(=O)c1cccc(COc2c(-c3ccc(OCCOCCn4cc(CN5CCN(Cc6cn(CCOCCOc7ccc(-c8oc9ccccc9c(=O)c8OCc8cccc(C(=O)OC)c8)cc7)nn6)CC5)nn4)cc3)oc3ccccc3c2=O)c1 | > 100
Cc1ccc2oc(-c3ccc(OCCOCCOCCn4cc(CN(CCOc5ccc6c(=O)cc(-c7ccccc7)oc6c5)Cc5ccccc5)nn4)cc3)cc(=O)c2c1 | > 100
COC(=O)c1cccc(COc2c(-c3ccc(OCCOCCn4cc(CCCOc5ccc6c(=O)cc(-c7ccccc7)oc6c5)nn4)cc3)oc3ccccc3c2=O)c1 | > 100
O=c1cc(-c2ccccc2)oc2cc(OCCCc3cn(CCOCCOCCOc4ccc(-c5oc6ccccc6c(=O)c5OCc5ccccc5)cc4)nn3)ccc12 | > 100
COC(=O)c1cccc(COc2c(-c3ccc(OCCOCCn4cc(-c5ccc(-c6cn(CCOCCOc7ccc(-c8oc9ccccc9c(=O)c8OCc8cccc(C(=O)OC)c8)cc7)nn6)cc5)nn4)cc3)oc3ccccc3c2=O)c1 | > 100
O=c1cc(-c2ccccc2)oc2cc(OCCN(Cc3ccccc3)Cc3cn(CCOc4ccc5c(=O)cc(-c6ccccc6)oc5c4)nn3)ccc12 | > 100
O=c1cc(-c2ccc(OCCOCCOCCn3cc(COCCOc4ccc5c(=O)cc(-c6ccccc6)oc5c4)nn3)cc2)oc2ccccc12 | 22
COC(=O)c1cccc(COc2c(-c3ccc(OCCOCCOCCn4cc(CN5CCN(Cc6cn(CCOCCOCCOc7ccc(-c8oc9ccccc9c(=O)c8OCc8cccc(C(=O)OC)c8)cc7)nn6)CC5)nn4)cc3)oc3ccccc3c2=O)c1 | > 100
O=c1cc(-c2ccc(OCCCc3cn(CCOCCOCCOc4ccc(-c5oc6ccccc6c(=O)c5OCc5ccccc5)cc4)nn3)cc2)oc2cc(F)ccc12 | > 100
Cc1ccc2oc(-c3ccc(OCCCCc4cn(CCN(CCOc5ccc(-c6cc(=O)c7ccccc7o6)cc5)Cc5ccccc5)nn4)cc3)cc(=O)c2c1 | > 100
O=c1cc(-c2ccccc2)oc2cc(OCCOCc3cn(CCOCCOc4ccc(-c5oc6ccccc6c(=O)c5OCc5ccccc5)cc4)nn3)ccc12 | > 100
OCCOCCn1cc(CN(Cc2ccccc2)Cc2cn(CCOCCO)nn2)nn1 | > 100
O=c1c(OCc2ccccc2)c(-c2ccc(OCCOCCOCCn3cc(CN(Cc4ccccc4)Cc4cn(CCOCCOCCOc5ccc(-c6oc7ccccc7c(=O)c6OCc6ccccc6)cc5)nn4)nn3)cc2)oc2ccccc12 | > 100
Cc1ccc2oc(-c3ccc(OCCOCCOCCn4cc(CN(Cc5ccccc5)Cc5cn(CCOCCOCCOc6ccc(-c7cc(=O)c8cc(C)ccc8o7)cc6)nn5)nn4)cc3)cc(=O)c2c1 | > 100
Cc1ccc2oc(-c3ccc(OCCCCc4cn(CCOc5ccc6c(=O)cc(-c7ccccc7)oc6c5)nn4)cc3)cc(=O)c2c1 | 9.2
O=c1cc(-c2ccccc2)oc2cc(OCCCCc3cn(CCOCCOc4ccc5c(=O)cc(-c6ccccc6)oc5c4)nn3)ccc12 | > 100

Tested on: NIH3T3
Assay: Cytotoxicity against mouse 3T3 cells assessed as reduction in cell viability
Format: cell-based

SMILES | IC50 [µM]
COC(=O)c1cccc(COc2c(-c3ccc(OCCOCCOCCn4cc(-c5cccc(-c6cn(CCOCCOCCOc7ccc(-c8oc9ccccc9c(=O)c8OCc8cccc(C(=O)OC)c8)cc7)nn6)c5)nn4)cc3)oc3ccccc3c2=O)c1 | > 100
COC(=O)c1cccc(COc2c(-c3ccc(OCCOCCn4cc(CCCc5cn(CCOCCOc6ccc(-c7oc8ccccc8c(=O)c7OCc7cccc(C(=O)OC)c7)cc6)nn5)nn4)cc3)oc3ccccc3c2=O)c1 | > 100

Tested on: HFF-1
Assay: Cytotoxicity against human HFF1 cells assessed as reduction in cell viability
Format: cell-based

SMILES | IC50 [µM]
COC(=O)c1cccc(COc2c(-c3ccc(OCCOCCOCCn4cc(-c5cccc(-c6cn(CCOCCOCCOc7ccc(-c8oc9ccccc9c(=O)c8OCc8cccc(C(=O)OC)c8)cc7)nn6)c5)nn4)cc3)oc3ccccc3c2=O)c1 | > 100
COC(=O)c1cccc(COc2c(-c3ccc(OCCOCCn4cc(CCCc5cn(CCOCCOc6ccc(-c7oc8ccccc8c(=O)c7OCc7cccc(C(=O)OC)c7)cc6)nn5)nn4)cc3)oc3ccccc3c2=O)c1 | > 100
